Measurements taken from the supplement of paper PMC10883282.
± gives the standard deviation of the averaged measurements.

Assays:
Test in all cases: relative viability vs DMSO control (72 h) (fraction); higher = more viable cells
[1] = tested on: HT1080
How it was run: (§1)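 Plates held 72 h at 37 °C and 5% CO2 contained sarcoma cell lines seeded in 384-well format to reach 80–90% confluence, plus 2.5 µl of serially diluted compound added after 24 h. Source plate concentrations ran from 10 mM to 0.0002 mM, with 0.1% DMSO as vehicle and a 5 µM positive control. Percent growth from ATPLite readings, averaged over up to triplicate wells, gave relative viability. Values were rescaled with 1 as full and 0 as none.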

[2] = tested on: SW872
How it was run: as §1

[3] = tested on: SW1353
How it was run: as §1

[4] = tested on: KHOS-NP
How it was run: as §1

[5] = tested on: RD-ES
How it was run: as §1

[6] = tested on: MES-SA
How it was run: as §1

[7] = tested on: SK-ES-1
How it was run: as §1

[8] = tested on: SW684
How it was run: as §1

[9] = tested on: SK-LMS-1
How it was run: as §1

[10] = tested on: G401
How it was run: as §1

[11] = tested on: VA-ES-BJ
How it was run: as §1

[12] = tested on: RD
How it was run: as §1

Cc1cn(-c2cc(NC(=O)c3ccc(C)c(Nc4nccc(-c5cccnc5)n4)c3)cc(C(F)(F)F)c2)cn1 [Nilotinib]
Conditions	relative viability
[1], 0.00017 µM	1.02 ± 0.05
[1], 0.00051 µM	0.997 ± 0.033
[1], 0.00152 µM	0.964 ± 0.021
[1], 0.00457 µM	1.01 ± 0.032
[1], 0.01372 µM	1.04 ± 0.024
[1], 0.04115 µM	0.991 ± 0.042
[1], 0.1235 µM	1.03 ± 0.071
[1], 0.3704 µM	1 ± 0.03
[1], 1.111 µM	0.993 ± 0.047
[1], 3.333 µM	1.02 ± 0.018
[1], 10 µM	0.889 ± 0.03
[2], 0.00017 µM	0.959 ± 0.019
[2], 0.00051 µM	0.91 ± 0.05
[2], 0.00152 µM	0.924 ± 0.013
[2], 0.00457 µM	0.926 ± 0.049
[2], 0.01372 µM	0.948 ± 0.013
[2], 0.04115 µM	0.971 ± 0.026
[2], 0.1235 µM	1.01 ± 0.02
[2], 0.3704 µM	0.999 ± 0.048
[2], 1.111 µM	0.94 ± 0.018
[2], 3.333 µM	0.796 ± 0.022
[2], 10 µM	0.766 ± 0.029
[3], 0.00017 µM	0.933 ± 0.028
[3], 0.00051 µM	0.951 ± 0.043
[3], 0.00152 µM	0.935 ± 0.034
[3], 0.00457 µM	0.967 ± 0.065
[3], 0.01372 µM	0.969 ± 0.065
[3], 0.04115 µM	1.01 ± 0.033
[3], 0.1235 µM	1.05 ± 0.011
[3], 0.3704 µM	1.09 ± 0.07
[3], 1.111 µM	1.08 ± 0.049
[3], 3.333 µM	0.994 ± 0.045
[3], 10 µM	0.846 ± 0.035
[4], 0.00017 µM	1.038 ± 0.0085
[4], 0.00051 µM	1.05 ± 0.0076
[4], 0.00152 µM	1.04 ± 0.023
[4], 0.00457 µM	1.05 ± 0.021
[4], 0.01372 µM	1.02 ± 0.018
[4], 0.04115 µM	1.02 ± 0.015
[4], 0.1235 µM	1.044 ± 0.0053
[4], 0.3704 µM	1.03 ± 0.021
[4], 1.111 µM	1.04 ± 0.0061
[4], 3.333 µM	1.02 ± 0.013
[4], 10 µM	0.929 ± 0.059
[5], 0.00017 µM	0.934 ± 0.053
[5], 0.00051 µM	0.919 ± 0.065
[5], 0.00152 µM	0.927 ± 0.068
[5], 0.00457 µM	0.938 ± 0.058
[5], 0.01372 µM	0.925 ± 0.047
[5], 0.04115 µM	0.936 ± 0.042
[5], 0.1235 µM	0.912 ± 0.053
[5], 0.3704 µM	0.883 ± 0.061
[5], 1.111 µM	0.826 ± 0.083
[5], 3.333 µM	0.702 ± 0.038
[5], 10 µM	0.714 ± 0.04
[6], 0.00017 µM	0.882 ± 0.011
[6], 0.00051 µM	0.867 ± 0.018
[6], 0.00152 µM	0.874 ± 0.015
[6], 0.00457 µM	0.875 ± 0.029
[6], 0.01372 µM	0.88 ± 0.021
[6], 0.04115 µM	0.94 ± 0.015
[6], 0.1235 µM	0.938 ± 0.045
[6], 0.3704 µM	0.93 ± 0.036
[6], 1.111 µM	0.891 ± 0.065
[6], 3.333 µM	0.659 ± 0.021
[6], 10 µM	0.594 ± 0.019
[7], 0.00017 µM	0.966 ± 0.023
[7], 0.00051 µM	0.958 ± 0.051
[7], 0.00152 µM	0.951 ± 0.014
[7], 0.00457 µM	0.919 ± 0.039
[7], 0.01372 µM	0.954 ± 0.042
[7], 0.04115 µM	0.975 ± 0.017
[7], 0.1235 µM	0.997 ± 0.059
[7], 0.3704 µM	0.908 ± 0.025
[7], 1.111 µM	0.788 ± 0.037
[7], 3.333 µM	0.55 ± 0.0074
[7], 10 µM	0.484 ± 0.03
[8], 0.00017 µM	1.04 ± 0.034
[8], 0.00051 µM	1.07 ± 0.037
[8], 0.00152 µM	1.09 ± 0.017
[8], 0.00457 µM	1.07 ± 0.028
[8], 0.01372 µM	1.07 ± 0.023
[8], 0.04115 µM	1.12 ± 0.044
[8], 0.1235 µM	1.21 ± 0.054
[8], 0.3704 µM	1.32 ± 0.024
[8], 1.111 µM	1.26 ± 0.067
[8], 3.333 µM	1.24 ± 0.085
[8], 10 µM	1.15 ± 0.046
[9], 0.00017 µM	0.953 ± 0.033
[9], 0.00051 µM	0.983 ± 0.033
[9], 0.00152 µM	1.01 ± 0.028
[9], 0.00457 µM	1.03 ± 0.1
[9], 0.01372 µM	1.02 ± 0.068
[9], 0.04115 µM	1.05 ± 0.024
[9], 0.1235 µM	1.11 ± 0.061
[9], 0.3704 µM	1.12 ± 0.063
[9], 1.111 µM	1.16 ± 0.038
[9], 3.333 µM	0.978 ± 0.045
[9], 10 µM	0.965 ± 0.027
[10], 0.00017 µM	0.944 ± 0.034
[10], 0.00051 µM	0.963 ± 0.036
[10], 0.00152 µM	0.968 ± 0.024
[10], 0.00457 µM	0.963 ± 0.035
[10], 0.01372 µM	0.979 ± 0.021
[10], 0.04115 µM	0.982 ± 0.032
[10], 0.1235 µM	0.995 ± 0.013
[10], 0.3704 µM	0.923 ± 0.025
[10], 1.111 µM	0.865 ± 0.038
[10], 3.333 µM	0.795 ± 0.021
[10], 10 µM	0.737 ± 0.063
[11], 0.00017 µM	1.05 ± 0.027
[11], 0.00051 µM	1.04 ± 0.024
[11], 0.00152 µM	1.04 ± 0.028
[11], 0.00457 µM	1.05 ± 0.028
[11], 0.01372 µM	1.05 ± 0.036
[11], 0.04115 µM	1.06 ± 0.018
[11], 0.1235 µM	1.08 ± 0.044
[11], 0.3704 µM	1.1 ± 0.028
[11], 1.111 µM	1.1 ± 0.016
[11], 3.333 µM	0.989 ± 0.03
[11], 10 µM	0.679 ± 0.043
[12], 0.00017 µM	1.06 ± 0.057
[12], 0.00051 µM	1.07 ± 0.064
[12], 0.00152 µM	1.09 ± 0.083
[12], 0.00457 µM	1.08 ± 0.083
[12], 0.01372 µM	1.11 ± 0.047
[12], 0.04115 µM	1.12 ± 0.079
[12], 0.1235 µM	1.11 ± 0.047
[12], 0.3704 µM	1.07 ± 0.072
[12], 1.111 µM	0.898 ± 0.02
[12], 3.333 µM	0.731 ± 0.025
[12], 10 µM	0.6531 ± 0.0034
